Test results published in US20220054465A1, “(PYRIDIN-2-YL)AMINE DERIVATIVES AS TGF-BETA R1 (ALK5) INHIBITORS FOR THE TREATMENT OF CANCER” (Nexys Therapeutics, Inc., priority 2018, published 2022).

Test system: HEK-Blue TGFβ cell
Experiment: HEK-Blue TGFβ cellular reporter gene assay (SEAP readout)
Type: cell-based
Details: HEK-Blue TGFβ cells stimulated with TGF-β, 22-23 h incubation, SEAP read at 630 nm
Description: HEK-Blue TGFβ Cellular Reporter Gene Assay:
HEK-Blue TGFβ cell was purchased from Invivogen. Cell suspension of 2.5×10^5 cells/ml was prepared using Test Medium (DMEM containing 0.5% v/v heat-inactivated FBS). TGF-β working solution (6 ng/ml) was obtained through diluting TGF-β stock solution (10 μg/ml) by Test Medium before use. Eight different concentrations of all compounds were obtained by 3× gradient dilution method using TGF-β working solution. Add 100 μl of Test Medium (Vehicle) or test article or TGF-β working solution per well of a flat-bottom 96-well plate. Add 100 μl of HEK-Blue TGF-β cell suspension per well. Incubate the plate at 37° C. in a CO2 incubator for 22-23 h. Add 150 μl of resuspended QUANTI-Blue per well of a new flat-bottom 96-well plate. Add 30 μl of induced HEK-Blue TGF-β cells supernatant. Avoid pipetting at the bottom of wells. Incubate the plate at 37° C. incubator for 30-40 min. Determine secreted embryonic alkaline phosphatase (SEAP) levels using a spectrophotometer at 630 nm.
The inhibition was calculated using the equation: […]

Row | Structure (SMILES) | IC50
1 | COc1ccc(-c2nc(C)ccc2Oc2ccnc(Nc3cccc(C(C)(C)C(=O)O)c3)c2)cc1 [Example 88] | 39 nM
2 | Cc1ccc(Oc2ccnc(Nc3cccc(C(C)(C)C(=O)O)c3)c2)c(-c2ccccc2F)n1 [Example 89] | 27 nM
3 | Cc1ccc(Oc2ccnc(Nc3cccc(C(C)(C)C(=O)O)c3)c2)c(-c2cccc(F)c2)n1 [Example 90] | 24 nM
4 | Cc1ccc(Oc2ccnc(Nc3cccc(C(C)(C)C(=O)O)c3)c2)c(-c2ccc(F)cc2)n1 [Example 91] | 18 nM
5 | Cc1ccc(Oc2ccnc(Nc3cccc(C(C)(C)C(=O)O)c3)c2)c(-c2ccccc2C)n1 [Example 92] | 80 nM
6 | Cc1cccc(-c2nc(C)ccc2Oc2ccnc(Nc3cccc(C(C)(C)C(=O)O)c3)c2)c1 [Example 93] | 120 nM
7 | Cc1ccc(-c2nc(C)ccc2Oc2ccnc(Nc3cccc(C(C)(C)C(=O)O)c3)c2)cc1 [Example 94] | 64 nM
8 | Cc1ccc(Oc2ccnc(Nc3cccc(C(C)(C)C(=O)O)c3)c2)c(-c2ccccc2C#N)n1 [Example 95] | 290 nM
9 | Cc1ccc(Oc2ccnc(Nc3cccc(C(C)(C)C(=O)O)c3)c2)c(-c2cccc(C#N)c2)n1 [Example 96] | 190 nM
10 | Cc1ccc(Oc2ccnc(Nc3cccc(C(C)(C)C(=O)O)c3)c2)c(-c2ccc(C#N)cc2)n1 [Example 97] | 200 nM
11 | Cc1cc(Oc2ccnc(Nc3cccc(C(C)(C)C(=O)O)c3)c2)c(-c2ccccc2)nc1C [Example 98] | 51 nM
12 | Cc1nc(-c2ccccc2)c(Oc2ccnc(Nc3cccc(C(C)(C)C(=O)O)c3)c2)cc1Cl [Example 99] | 23 nM
13 | CCc1cc(Oc2ccnc(Nc3cccc(C(C)(C)C(=O)O)c3)c2)c(-c2ccccc2)nc1C [Example 100] | 2590 nM
14 | Cc1nc(-c2ccccc2)c(Oc2ccnc(Nc3cccc(C(C)(C)C(=O)O)c3)c2)cc1C1CC1 [Example 101] | 3310 nM
15 | Cc1nc(-c2ccccc2)c(Oc2ccnc(Nc3cccc(C(C)(C)C(=O)O)c3)c2)cc1C(C)C [Example 102] | 2710 nM
16 | Cc1nc(-c2ccccc2)c(Oc2ccnc(Nc3cccc(C(C)(C)C(=O)O)c3)c2)cc1C(C)(C)O [Example 103] | > 10000 nM
17 | CC(C)(C(=O)O)c1cccc(Nc2cc(Oc3ccc(C4CC4)nc3-c3ccccc3)ccn2)c1 [Example 105] | 130 nM
18 | CCCc1ccc(Oc2ccnc(Nc3cccc(C(C)(C)C(=O)O)c3)c2)c(-c2ccccc2)n1 [Example 106] | 120 nM
19 | CC(C)c1ccc(Oc2ccnc(Nc3cccc(C(C)(C)C(=O)O)c3)c2)c(-c2ccccc2)n1 [Example 107] | 180 nM
20 | Cc1ccc(Oc2ccnc(Nc3cccc(C(C)(C)C(=O)O)c3)c2)c(C2CCOCC2)n1 [Example 108] | 900 nM
21 | Cc1cc(Oc2ccnc(Nc3cccc(C(C)(C)CC(=O)O)c3)c2)c(-c2ccccn2)nc1C [Example 109] | 51 nM
22 | Cc1ccc(Oc2ccnc(Nc3cccc(C(C)(C)CC(=O)O)c3)c2)c(-c2ccccc2)n1 [Example 110] | 30 nM
23 | O=C(O)c1cccc(Nc2cc(Oc3cn(C4CC4)nc3C3CCOCC3)ccn2)c1 [Example 111] | 6200 nM

Row | Structure (SMILES) | IC50
24 | Cc1cc(Nc2cc(Oc3cn(C4CC4)nc3C3CCOCC3)ccn2)cc(C(=O)O)c1 [Example 112] | 1670 nM
25 | CC(C)(C(=O)O)c1ccc(Nc2cc(Oc3cn(C4CC4)nc3C3CCOCC3)ccn2)cc1 [Example 113] | 510 nM
26 | Cc1ccc(Nc2cc(Oc3cn(C4CC4)nc3C3CCOCC3)ccn2)cc1C(=O)O [Example 114] | 2540 nM
27 | Cc1ccc(Nc2cc(Oc3cn(C4CC4)nc3C3CCOCC3)ccn2)cc1CC(=O)O [Example 115] | 1100 nM
28 | O=C(O)c1cc(Nc2cc(Oc3cn(C4CC4)nc3C3CCOCC3)ccn2)ccn1 [Example 117] | > 10000 nM
29 | CC(C)(C(=O)O)c1cccc(Nc2cc(Oc3cn(C4CCC4)nc3C3CCOCC3)ccn2)c1 [Example 118] | 310 nM
30 | CC(C)(C(=O)O)c1cccc(Nc2cc(Oc3cn(C4CC4)nc3-c3ccccc3)ccn2)c1 [Example 119] | 13 nM
31 | Cn1cc(Oc2ccnc(Nc3cccc(C(C)(C)C(=O)O)c3)c2)c(-c2ccccc2)n1 [Example 120] | 50 nM
32 | CC(C)(C(=O)O)c1cccc(Nc2cc(Oc3cn(C(F)F)nc3-c3ccccc3)ccn2)c1 [Example 121] | 78 nM
33 | CCn1cc(Oc2ccnc(Nc3cccc(C(C)(C)C(=O)O)c3)c2)c(-c2ccccc2)n1 [Example 122] | 29 nM
34 | CC(C)(C(=O)O)c1cccc(Nc2cc(Oc3cn(CC(F)F)nc3-c3ccccc3)ccn2)c1 [Example 123] | 180 nM
35 | CC(C)n1cc(Oc2ccnc(Nc3cccc(C(C)(C)C(=O)O)c3)c2)c(-c2ccccc2)n1 [Example 124] | 190 nM
36 | CC(C)(C(=O)O)c1cccc(Nc2cc(Oc3cn(C4CCC4)nc3-c3ccccc3)ccn2)c1 [Example 125] | 66 nM
37 | CC(C)(C(=O)O)c1cccc(Nc2cc(Oc3cn(C4COC4)nc3-c3ccccc3)ccn2)c1 [Example 126] | 200 nM
38 | CC(C)(C(=O)O)c1cccc(Nc2cc(Oc3cn(C4CC4)nc3C3CCCCC3)ccn2)c1 [Example 127] | 12 nM
39 | CC(C)(C(=O)O)c1cccc(Nc2cc(Oc3cn(C4CC4)nc3C3CCCC3)ccn2)c1 [Example 128] | 22 nM
40 | CC(C)(C(=O)O)c1cccc(Nc2cc(Oc3cn(C4CC4)nc3C3CCC3)ccn2)c1 [Example 129] | 29 nM
41 | CC(C)(C(=O)O)c1cccc(Nc2cc(Oc3cn(C4CC4)nc3-c3ccccn3)ccn2)c1 [Example 130] | > 10000 nM
42 | Cc1ccc(Oc2ccnc(Nc3cccc(C(F)(F)C(=O)O)c3)c2)c(-c2ccccc2)n1 [Example 131, 2,2-difluoro-2-(3-((4-((6-methyl-2-phenylpyridin-3-yl)oxy)pyridin-2-yl)amino)phenyl)acetic acid] | 1730 nM
43 | O=C(O)C(F)(F)c1cccc(Nc2cc(Oc3cn(C4CC4)nc3-c3ccccc3)ccn2)c1 [Example 132, 2-(3-((4-((1-cyclopropyl-3-phenyl-1H-pyrazol-4-yl)oxy)pyridin-2-yl)amino)phenyl)-2,2-difluoroacetic acid] | > 10000 nM
44 | CCc1ccc(Oc2ccnc(Nc3cccc(CC(C)(C)C(=O)O)c3)c2)c(C)n1 [Example 133, 3-(3-((4-((6-ethyl-2-methylpyridin-3-yl)oxy)pyridin-2-yl)amino)phenyl)-2,2-dimethylpropanoic acid] | 28 nM
45 | Cc1cc(Nc2cc(Oc3cc(C)c(C)nc3-c3ccccn3)ccn2)cc(C(C)(C)C(=O)O)c1 [Example 134] | 78 nM
46 | Cc1ccc(Nc2cc(Oc3cc(C)c(C)nc3-c3ccccn3)ccn2)cc1C(C)(C)C(=O)O [Example 136] | 100 nM

Row | Structure (SMILES) | IC50
47 | Cc1cc(Oc2ccnc(Nc3cccc(CC(C)(C)C(=O)O)c3)c2)c(-c2ccccn2)nc1C [Example 137] | 71 nM
48 | CCc1ccc(Oc2ccnc(Nc3cccc(CCC(=O)O)c3)c2)c(-c2ccccn2)n1 [Example 138] | 49 nM
49 | CCc1nc(-c2ccccn2)c(Oc2ccnc(Nc3cccc(CCC(=O)O)c3)c2)cc1C [Example 139] | 42 nM
50 | Cc1ccc(Oc2ccnc(Nc3cccc(CC(C)(C)C(=O)O)c3)c2)c(-c2ccccc2)n1 [Example 140] | 35 nM
51 | Cc1cc(CC(C)(C)C(=O)O)cc(Nc2cc(Oc3ccc(C)nc3-c3ccccc3)ccn2)c1 [Example 141] | 12 nM
52 | Cc1cc(Nc2cc(Oc3ccc(C)nc3-c3ccccc3)ccn2)cc(C(C)(C)C(=O)O)c1 [Example 142] | 7 nM
53 | Cc1cc(Nc2cc(Oc3cc(C)c(C)nc3C3CCOCC3)ccn2)cc(C(C)(C)C(=O)O)c1 [Example 143] | 130 nM
54 | CCc1ccc(Oc2ccnc(Nc3cc(C)cc(C(C)(C)C(=O)O)c3)c2)c(C)n1 [Example 144] | 75 nM
55 | CCc1ccc(Oc2ccnc(Nc3cc(C)cc(CC(C)(C)C(=O)O)c3)c2)c(C)n1 [Example 145] | 33 nM
56 | CCc1ccc(Oc2ccnc(Nc3cccc(CCC(=O)O)c3)c2)c(C)n1 [Example 146] | 21 nM
57 | CCc1ccc(Oc2ccnc(Nc3cc(C)cc(CCC(=O)O)c3)c2)c(C)n1 [Example 147] | 25 nM
58 | CCc1nc(C)c(Oc2ccnc(Nc3cc(C)cc(C(C)(C)C(=O)O)c3)c2)cc1C [Example 148] | 34 nM
59 | CCc1nc(C)c(Oc2ccnc(Nc3cccc(CCC(=O)O)c3)c2)cc1C [Example 149] | 21 nM
60 | CCc1nc(C)c(Oc2ccnc(Nc3cc(C)cc(CCC(=O)O)c3)c2)cc1C [Example 150] | 27 nM
61 | CCc1nc(C)c(Oc2ccnc(Nc3cccc(CC(C)(C)C(=O)O)c3)c2)cc1C [Example 151] | 30 nM
62 | CCc1nc(C)c(Oc2ccnc(Nc3cc(C)cc(CC(C)(C)C(=O)O)c3)c2)cc1C [Example 152] | 20 nM
63 | CCc1nc(C)c(Oc2ccnc(Nc3cc(C)cc(C(C)(C)C(=O)O)c3)c2)cc1Cl [Example 153] | 70 nM
64 | CCc1nc(C)c(Oc2ccnc(Nc3cccc(CCC(=O)O)c3)c2)cc1Cl [Example 154] | 16 nM
65 | CCc1nc(C)c(Oc2ccnc(Nc3cccc(CC(C)(C)C(=O)O)c3)c2)cc1Cl [Example 155] | 30 nM
66 | CCc1nc(C)c(Oc2ccnc(Nc3cc(C)cc(CC(C)(C)C(=O)O)c3)c2)cc1Cl [Example 156] | 23 nM
67 | Cc1cc(Nc2cc(Oc3cc(Cl)c(C)nc3C)ccn2)cc(C(C)(C)C(=O)O)c1 [Example 157] | 27 nM
68 | Cc1cc(CC(C)(C)C(=O)O)cc(Nc2cc(Oc3cc(Cl)c(C)nc3C)ccn2)c1 [Example 158] | 37 nM
69 | CC(C)(C(=O)CO)c1cccc(Nc2cc(Oc3cn(C4CC4)nc3C3CCOCC3)ccn2)c1 [Example 159] | 140 nM
